Assay results as given in patent US8906910B2, “Imidazopyridine derivatives as PI3 kinase” (GlaxoSmithKline LLC, priority 2011, dated 2014).

Experiments:
PI3Kβ = molecular target: T1, PI3Kβ (Homo sapiens, UniProt P42338); experiment: HTRF in vitro profiling assay for PI3K inhibition (beta isoform); assay type: biochemical; details: 200 pM enzyme, 100 uM ATP, 10 uM PIP2, 150 mM NaCl, corrected pIC50, single run or average of two or more runs; for IC50: read-out: PI3K b pIC50 (converted)
T1 construct: made in house
T1 sequence (P42338 whole entry, canonical isoform): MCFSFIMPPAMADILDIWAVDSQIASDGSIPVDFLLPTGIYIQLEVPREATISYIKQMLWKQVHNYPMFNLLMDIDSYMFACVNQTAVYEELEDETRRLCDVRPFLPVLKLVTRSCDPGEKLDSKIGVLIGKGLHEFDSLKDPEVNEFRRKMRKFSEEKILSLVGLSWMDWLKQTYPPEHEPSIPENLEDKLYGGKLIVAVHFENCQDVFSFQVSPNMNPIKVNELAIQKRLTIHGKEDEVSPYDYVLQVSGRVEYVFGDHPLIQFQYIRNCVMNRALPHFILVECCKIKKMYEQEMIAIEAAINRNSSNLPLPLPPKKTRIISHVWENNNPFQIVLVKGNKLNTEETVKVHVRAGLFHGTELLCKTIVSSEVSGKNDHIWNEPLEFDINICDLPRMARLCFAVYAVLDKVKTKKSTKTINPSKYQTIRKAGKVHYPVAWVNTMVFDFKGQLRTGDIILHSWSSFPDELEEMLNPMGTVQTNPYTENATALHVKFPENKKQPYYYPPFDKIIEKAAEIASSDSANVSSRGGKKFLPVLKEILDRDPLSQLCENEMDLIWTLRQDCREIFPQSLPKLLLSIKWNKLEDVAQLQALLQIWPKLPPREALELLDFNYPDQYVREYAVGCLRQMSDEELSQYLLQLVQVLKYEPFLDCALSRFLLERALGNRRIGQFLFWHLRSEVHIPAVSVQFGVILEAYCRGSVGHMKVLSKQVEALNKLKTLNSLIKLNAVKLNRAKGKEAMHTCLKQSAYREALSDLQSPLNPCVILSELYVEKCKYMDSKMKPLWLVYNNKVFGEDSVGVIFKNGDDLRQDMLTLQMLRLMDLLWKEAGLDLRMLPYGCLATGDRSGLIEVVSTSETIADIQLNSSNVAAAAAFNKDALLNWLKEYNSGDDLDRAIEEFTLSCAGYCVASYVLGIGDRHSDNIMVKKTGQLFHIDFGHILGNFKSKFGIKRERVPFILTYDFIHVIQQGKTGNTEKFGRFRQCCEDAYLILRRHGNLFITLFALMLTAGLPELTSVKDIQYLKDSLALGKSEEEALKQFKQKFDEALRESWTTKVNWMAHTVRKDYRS
T1 sequence (P27986 whole entry partner, canonical isoform): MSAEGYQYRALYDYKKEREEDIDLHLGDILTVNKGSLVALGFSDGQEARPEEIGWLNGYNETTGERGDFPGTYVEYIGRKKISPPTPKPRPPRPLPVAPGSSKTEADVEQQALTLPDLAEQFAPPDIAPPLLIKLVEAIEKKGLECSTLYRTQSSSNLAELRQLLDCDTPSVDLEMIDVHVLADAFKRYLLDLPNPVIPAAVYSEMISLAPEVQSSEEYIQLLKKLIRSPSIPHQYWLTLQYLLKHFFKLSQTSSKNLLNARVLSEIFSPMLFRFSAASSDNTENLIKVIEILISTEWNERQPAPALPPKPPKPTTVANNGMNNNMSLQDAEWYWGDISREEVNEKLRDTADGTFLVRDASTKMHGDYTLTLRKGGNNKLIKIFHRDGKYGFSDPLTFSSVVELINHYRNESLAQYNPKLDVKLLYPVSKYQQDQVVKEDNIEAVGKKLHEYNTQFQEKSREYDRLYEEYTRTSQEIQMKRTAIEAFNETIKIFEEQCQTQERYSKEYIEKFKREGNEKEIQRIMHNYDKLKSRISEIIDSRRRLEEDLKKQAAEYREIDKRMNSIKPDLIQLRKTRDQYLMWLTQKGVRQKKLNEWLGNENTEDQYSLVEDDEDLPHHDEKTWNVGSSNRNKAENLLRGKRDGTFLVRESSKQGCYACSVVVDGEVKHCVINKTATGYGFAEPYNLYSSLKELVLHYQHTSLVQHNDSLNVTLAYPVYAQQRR
Description: The PI3-Kinase profiling assays were developed to measure the compound-dependent inhibition of the alpha, beta, delta, and gamma isoforms of PI3Kin an in vitro catalytic assay. This assay was developed and optimized from a kit produced by Upstate (Millipore catalog #33-017). Briefly, this procedure utilizes a pre-formed HTRF (Homogeneous Time-Resolved Fluorescence energy transfer) complex between four binding partners: 1) biotinylated PIP3, 2) GST tagged pleckstrin homology (PH) domain, 3) Europium labeled anti-GST monoclonal antibody, and 4) Streptavidin-Allophycocyanin (APC). The native PIP3 produced by PI 3-Kinase activity displaces biotin-PIP3 from the PH domain, resulting in the dissociation of the HTRF complex and a decrease in the fluorescence signal. The format of this assay is the same for all 4 isoforms of PI3K; the differences lie in the concentration of enzyme used to achieve the most robust signal. The alpha and delta assays are run at 400 pM enzyme; the beta assay is at 200 pM enzyme and the gamma assay is run at 1 nM enzyme. In addition, the alpha, beta and delta assays are run with 150 mM NaCl while the gamma assay is run in the absence of NaCl. The ATP concentration is 100 uM in the alpha, beta, and delta assays and 15 uM ATP in the gamma assay. All reactions are run at 10 uM PIP2
Compounds were serially diluted (3-fold in 100% DMSO) across a 384-well polypropylene mother plate from column 1 to column 12 and column 13 to column 24, to yield 11 concentrations for each test compound. Columns 6 and 18 contain only DMSO. Once titrations were made, 0.054 was transferred to a 384-well low-volume assay plate (Greiner 784076). This assay plate contained three pharmacological controls (known PI3K inhibitors) and 3 assay controls: (1) Enzyme without inhibitor; (2) Buffer minus enzyme, and (3) Buffer minus enzyme plus native PIP3. DMSO was stamped into all wells of columns 6 and 18. PIP3 was added at 40 μM in 1× Reaction buffer (1 μL of 200 μM PIP3) to alternating rows of column 18 (wells 18 B, D, F, H, J, L, N, P). The no-enzyme control reactions were run in wells 18 A, C, E, G, I, K, M, O (0.14 of 100% DMSO).
The PI3-Kinase profiling assay was optimized using the HTRF kit provided by Upstate (Millipore). The assay kit contained seven reagents: 1) 4× Reaction Buffer; 2) native PIP2 (substrate); 3) Stop A (EDTA); 4) Stop B (Biotin-PIP3); 5) Detection Mix A (Streptavidin-APC); 6) Detection Mix B (Eu-labeled Anti-GST plus GST-tagged PH-domain); 7) Detection Mix C (KF). In addition, the following items were obtained or purchased: PI3Kinase (prepared by GSK BR&AD), dithiothreitol (Sigma, D-5545), Adenosine-5′-triphosphate (ATP, Teknova cat. #A0220), native PIP3 (1,2-dioctanoyl-sn-glycero-3-[phosphoinositil-3,4,5-triphosphate]tetraammonium salt (Avanti polar lipids, 850186P), DMSO (Sigma, 472301).
PI3Kinase Reaction Buffer was prepared by diluting the stock 1:4 with de-ionized water. Freshly prepared DTT was added at a final concentration of 5 mM on the day of use. Enzyme addition and compound pre-incubation were initiated by the addition of 2.5 μL of PI3K (at twice its final concentration) in 1× reaction buffer to all wells using a Multidrop Combi. Plates were incubated at room temperature for 15 minutes. Reactions were initiated by addition of 2.5 μL of 2× substrate solution (PIP2 and ATP in 1× reaction buffer) using a Multidrop Combi. Plates were incubated at room temperature for one hour. Reactions were quenched by the addition of 2.5 μL of stop solution (Stop A and Stop B pre-mixed at a ratio of 5:1, respectively) to all wells using the Multidrop Combi. […]

[1] = system: phosphorylation of AKT (Ser473) in MDA-MB-468 tumor cells; experiment: Inhibition of phosphorylation of AKT in PTEN deficient tumor cell line MDA-MB-468 (MSD Ser473-AKT); assay type: cell-based; details: Homo sapiens, 0.5 h; MDA-MB-468 breast cancer cells, 30 minutes compound treatment, Ser473-pAKT normalized to total AKT
Experimental: Compounds were evaluated for their ability to inhibit downstream phosphorylation of AKT in MDA-MB-468 tumor cells. Breast cancer cells were plated, incubated for approximately 16-20 hours and then treated with compound for 30 minutes. Final DMSO concentration on all cells was 0.15%. The cells were washed with Tris buffer and lysed in MesoScale Discovery (MSD) lysis buffer containing protease and phosphatase inhibitors (included in MSD kit). MSD Ser473-AKT duplex plates (Cat #MS6000) were used according to the manufacturer's instructions and plates were read on a SECTOR™ Imager 6000 using MSD Workbench software. For analysis of the Ser473-pAKT concentration response curves, the data was normalized using the corresponding total AKT value (sum of pAKT and AKT signal) and plotted as the percent of the DMSO-treated control values. The data was fit in Graphpad Prism version 4 for Windows (Graphpad Software, San Diego, Calif.).

MDA-MB-468 cells = experiment: Cell growth inhibition in PTEN-deficient cell line MDA-MB-468 (anchorage independent, Alamar Blue); assay type: cell-based; details: Homo sapiens, 144 h, MDA-MB-468, anchorage independent conditions, 6 days incubation, read-out: Prolif EC50 (nM) MDA-MB-468
Experimental: PTEN deficient tumor cell lines (MDA-MB-468) were cultured generally according to instructions supplied by cell culture supplier American Type Culture Collection, Manassas, Va., with 10% fetal bovine serum at 5% CO2 and 37° C. Cells were seeded into either a T-75 or a T-175 flask 3-4 days prior to 96-well assay plating such that the flasks were approximately 70-80% confluent of the time of harvest. Cells were harvested using 0.25% trypsin-EDTA (Invitrogen #25200056). Trypan Blue exclusion staining was used to determine cell number.
Viable cells were plated in clear, flat bottom 96-well plates (BD #353075) under anchorage independent conditions at 2,000-10,000 cells per well depending on the cell line. To generate anchorage independent growth conditions, a 5% agar stock solution in water was made and autoclaved to melt and sterilize. From the 5% agar solution, a 0.6% agar/media+10% fetal bovine serum (FBS) solution was made to generate a bottom agar layer in the plates to prevent cell attachment. Seventy five microliters per well of the 0.6% agar-media solution was added to the plates. After solidification, a cell solution of 266,870 to 1, 334,022 cells (depending on the cell line) in 10 ml of 0.3% agar/media+10% FBS was made and 75 μl of the cell/media/agar suspension was added to the plates. After the cell layer solidified, 50 μl of media+10% FBS was added to the top of the cells. A 0.3% Brij 35 (Sigma B4184) solution in media+10% FBS was added to column 12 as a background subtraction control. The cells were incubated overnight at 5% CO2 and 37° C. The next day one plate of cells was processed at the time of compound addition to quantify the starting number of cells (T=0 or T0).
To generate the compound titration plates, 15 μl of a 2 mM or 20 μl of a 20 mM solution of the compound of example 31 was diluted in clear bottom polypropylene 96-well plate (BD #351190) using a 10 point, 3-fold titration or a 20 point 2-fold titration, respectively. Three hundred microliters of media was added to the compound dilutions. Ten microliters per well of the serial dilutions was added to the cells and the plates incubated for 6 days at 5% CO2 and 37° C. The final concentration of DMSO in all wells was 0.15% and the highest final concentration of the compound of example 31 was 3.7 μM or 30.7 μM.
Following the 6-day incubation, 20 μl of Alamar Blue (Invitrogen #DAL1100) was added to the cells, incubated at 5% CO2 and 37° C. for 6 hours and the plates read on a Spectramax (Gemini EM) at 530 nm (excitation) and 590 nm (emission) with the auto cut-off disabled. For analysis of cell growth inhibition dose response curves, the data was plotted as the percent of the DMSO-treated control samples (DMSO samples set to 100%). The cellular response was determined for compounds and control compounds by fitting the concentration response with a 4 parameter curve fit using XLfit software and determining the concentration that inhibits 50% of the Ymax-Ymin window (EC50). The EC50 is the midpoint of active compound effect window (between Ymax plateau and Ymin plateau of compound) and represents the concentration of the compound of example 31 where 50% of its maximal effect is observed. Values from wells containing 0.3% Brij 35 (under anchorage independent conditions) were subtracted from all samples for background correction. The compounds listed in Table 3 were tested generally according to the assays described herein. […]

Row | SMILES | IC50 (PI3Kβ) | EC50 (MDA-MB-468 cells) | PI3K b pIC50 (PI3Kβ) | IC50 [1]
1 | Cc1nc2ccc(N3CCOCC3)nc2n1Cc1cccc(Cl)c1Cl [Example 8, 4-(3-(2,3-dichlorobenzyl)-2-methyl-3H-imidazo[4,5-b]pyridin-5-yl)morpholine] | 39.8 nM | 1500 nM |  | 406 nM
2 | Cc1c(Cn2c(C)nc3c(C(=O)O)cc(N4CCOCC4)nc32)cccc1C(F)(F)F [Example 3, 2-methyl-3-(2-methyl-3-(trifluoromethyl)benzyl)-5-morpholino-3H-imidazo[4,5-b]pyridine-7-carboxylic acid] |  | 41 nM | 8.3 | 436 nM
3 | Cc1nc2c(C(=O)O)cc(N3CCOCC3)nc2n1Cc1cccc(Cl)c1Cl [Example 4, 3-(2,3-dichlorobenzyl)-2-methyl-5-morpholino-3H-imidazo[4,5-b]pyridine-7-carboxylic acid] |  | 153 nM | 8.3 | 41.4 nM
4 | Cc1nc2c(C(=O)O)cc(N3CCOCC3)nc2n1Cc1cccc2ccccc12 [Example 6, 2-methyl-5-morpholino-3-(naphthalen-1-ylmethyl)-3H-imidazo[4,5-b]pyridine-7-carboxylic acid] | 1.58 nM | 66.5 nM |  | 75.3 nM

More lines, main results first:

Row | IC50 (PI3Kβ) | EC50 (MDA-MB-468 cells) | PI3K b pIC50 (PI3Kβ) | SMILES | IC50 [1]
5 | 3.16 nM |  |  | Oc1cc(N2CCOCC2)nc2c1ncn2Cc1cccc2ccccc12 [Example 2, 5-morpholino-3-(naphthalen-1-ylmethyl)-3H-imidazo[4,5-b]pyridin-7-ol] | 578 nM
6 | 6.31 nM |  |  | Cc1nc2ccc(N3CCOCC3)nc2n1Cc1cccc2ccccc12 [Example 7, 4-(2-methyl-3-(naphthalen-1-ylmethyl)-3H-imidazo[4,5-b]pyridin-5-yl)morpholine] | 126 nM
7 | 1.58 nM |  |  | Cc1c(Cn2cnc3c(O)cc(N4CCOCC4)nc32)cccc1C(F)(F)F [Example 1, 3-(2-methyl-3-(trifluoromethyl)benzyl)-5-morpholino-3H-imidazo[4,5-b]pyridin-7-ol] | 477 nM
8 |  | 18.1 nM | 8.8 | Cc1c(Cl)cccc1Cn1c(C)nc2c(C(=O)O)cc(N3CCOCC3)nc21 [Example 5, 3-(3-chloro-2-methylbenzyl)-2-methyl-5-morpholino-3H-imidazo[4,5-b]pyridine-7-carboxylic acid] | 15.9 nM
